This is an account of results in ChEMBL document CHEMBL5537181 (J Med Chem, 2024).

What is called IC50 is the midpoint of a concentration-inhibition curve. A word on the inhibition: it is the change of the read-out against control, counted positive when it falls.

The source made the active and inactive calls.

Assay [1] deals with T1, Neuronal acetylcholine receptor; alpha9/alpha10 (Homo sapiens, UniProt Q9GZZ6+Q9UGM1). Nature of the assay: Antagonist activity at human wild type alpha9alpha10 nAChR expressed in acetylcholine-induced Xenopus laevis oocytes assessed as inhibition of acetylcholine-induced current at 1:1 ratio of protein by two electrode voltage-clamp assay. It is filed as cell-based, Oocyte. Background: Two-electrode voltage clamp is typically applied to oocytes expressing channels or transporters.
T1 sequence (Q9UGM1 whole entry): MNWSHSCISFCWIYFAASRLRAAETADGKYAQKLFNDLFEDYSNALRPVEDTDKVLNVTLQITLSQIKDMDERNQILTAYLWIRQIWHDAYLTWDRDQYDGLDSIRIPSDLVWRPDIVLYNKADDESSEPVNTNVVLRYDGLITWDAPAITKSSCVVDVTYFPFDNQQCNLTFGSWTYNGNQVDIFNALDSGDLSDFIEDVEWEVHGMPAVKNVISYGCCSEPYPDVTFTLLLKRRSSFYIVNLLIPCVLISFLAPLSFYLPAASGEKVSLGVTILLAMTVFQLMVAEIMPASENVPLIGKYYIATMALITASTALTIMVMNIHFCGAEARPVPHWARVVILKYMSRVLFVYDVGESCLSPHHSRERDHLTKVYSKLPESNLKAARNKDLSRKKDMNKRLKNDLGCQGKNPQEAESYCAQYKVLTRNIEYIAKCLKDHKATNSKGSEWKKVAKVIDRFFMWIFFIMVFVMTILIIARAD
T1 sequence (Q9GZZ6 whole entry): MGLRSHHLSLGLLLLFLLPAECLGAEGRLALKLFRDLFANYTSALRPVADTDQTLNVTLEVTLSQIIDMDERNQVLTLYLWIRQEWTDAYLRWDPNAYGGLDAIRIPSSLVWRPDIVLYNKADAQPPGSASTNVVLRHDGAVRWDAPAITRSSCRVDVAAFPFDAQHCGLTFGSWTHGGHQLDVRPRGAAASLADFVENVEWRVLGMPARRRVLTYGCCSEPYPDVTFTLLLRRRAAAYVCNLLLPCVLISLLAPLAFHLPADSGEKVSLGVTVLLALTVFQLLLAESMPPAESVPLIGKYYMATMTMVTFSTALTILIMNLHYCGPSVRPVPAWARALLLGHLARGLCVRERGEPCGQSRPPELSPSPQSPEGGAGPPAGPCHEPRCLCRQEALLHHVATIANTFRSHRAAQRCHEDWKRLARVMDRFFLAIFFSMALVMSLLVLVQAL

For assay [2], the target named is T1, Neuronal acetylcholine receptor; alpha9/alpha10. In words: Antagonist activity at human wild type alpha9alpha10 nAChR expressed in acetylcholine-induced Xenopus laevis oocytes assessed as inhibition of acetylcholine-induced current at 1:3 ratio of protein by two electrode voltage-clamp assay. The assay is classed as cell-based, Oocyte.
The nature of assay [3]: Antagonist activity at human alpha9N152G mutant alpha10 nAChR expressed in acetylcholine-induced Xenopus laevis oocytes assessed as inhibition of acetylcholine-induced current at 1:1 ratio of protein by two electrode voltage-clamp assay. The assay is classed as cell-based. Particulars: Oocyte.
Assay [4] can be described thus: Antagonist activity at human alpha9alpha10G152N mutant nAChR expressed in acetylcholine-induced Xenopus laevis oocytes assessed as inhibition of acetylcholine-induced current at 1:1 ratio of protein by two electrode voltage-clamp assay. The following applies: Oocyte. The assay is classed as cell-based.
The target in assay [5] is T2, Neuronal acetylcholine receptor; alpha3/beta2 (Homo sapiens) (UniProt P17787+P32297). In words: Antagonist activity at human alpha3beta2 nAChR expressed in acetylcholine-induced Xenopus laevis oocytes assessed as inhibition of acetylcholine-induced current at 30 nM by two electrode voltage-clamp assay. The assay is classed as cell-based. Particulars: Oocyte.
The target in assay [6] is T2, Neuronal acetylcholine receptor; alpha3/beta2 (Homo sapiens). Nature of the assay: Antagonist activity at human alpha3beta2 nAChR expressed in acetylcholine-induced Xenopus laevis oocytes assessed as inhibition of acetylcholine-induced current at 100 nM by two electrode voltage-clamp assay relative to control. The assay is classed as cell-based. The following applies: Oocyte.

The target in assay [7] is T3, Neuronal acetylcholine receptor subunit alpha-7 (Homo sapiens, UniProt P36544). In words: Antagonist activity at human alpha7 nAChR expressed in acetylcholine-induced Xenopus laevis oocytes assessed as inhibition of acetylcholine-induced current at 100 nM by two electrode voltage-clamp assay. It is filed as cell-based. The following applies: Oocyte, filed as antagonist.
T3 sequence (P36544 whole entry): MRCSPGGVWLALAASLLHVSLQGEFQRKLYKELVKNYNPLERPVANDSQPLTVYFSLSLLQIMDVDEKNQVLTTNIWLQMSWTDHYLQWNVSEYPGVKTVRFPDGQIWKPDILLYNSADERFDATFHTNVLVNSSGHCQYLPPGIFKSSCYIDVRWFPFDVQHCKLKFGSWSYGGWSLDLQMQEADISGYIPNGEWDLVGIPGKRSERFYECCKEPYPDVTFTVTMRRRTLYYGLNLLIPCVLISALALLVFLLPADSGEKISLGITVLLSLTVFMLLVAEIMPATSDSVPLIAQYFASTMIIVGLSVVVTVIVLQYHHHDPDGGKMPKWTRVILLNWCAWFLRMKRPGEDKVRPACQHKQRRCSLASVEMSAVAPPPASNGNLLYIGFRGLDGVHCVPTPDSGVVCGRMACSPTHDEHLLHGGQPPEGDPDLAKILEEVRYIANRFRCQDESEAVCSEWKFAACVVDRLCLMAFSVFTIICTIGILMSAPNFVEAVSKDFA

In assay [8] the target is T3, Neuronal acetylcholine receptor subunit alpha-7. In words: Antagonist activity at human alpha7 nAChR expressed in acetylcholine-induced Xenopus laevis oocytes assessed as inhibition of acetylcholine-induced current by two electrode voltage-clamp assay. The assay is classed as cell-based, Oocyte.
In assay [9] the target is Neuronal acetylcholine receptor; alpha9/alpha10 (Homo sapiens) (UniProt Q9UGM1+Q9GZZ6). Nature of the assay: Antagonist activity at human alpha9alpha10 nAChR expressed in acetylcholine-induced Xenopus laevis oocytes assessed as inhibition of acetylcholine-induced current at 30 nM at -80 mV holding potential by two electrode voltage-clamp assay. It is filed as cell-based. Particulars: Oocyte, filed as antagonist.

Assay [10] has as its target Voltage-dependent N-type calcium channel subunit alpha-1B (Homo sapiens, UniProt Q00975). In words: Inhibition of human Cav2.2 channel transfected in HEK293T cells co-expressed with human GABAB receptor assessed as inhibition of Cav2.2-mediated Ba2+ current at 100 nM measured for 3 to 5 days by whole-cell patch clamp assay. It is filed as cell-based. The following applies: time 3-5 day.

The test system of assay [11] is Rattus norvegicus. Nature of the assay: Analgesic activity in Chronic constriction injury rat model assessed as increase in paw withdrawal threshold at 250 microg/kg,IM administration and measured for 0.5 to 48 hrs. The assay is classed as functional, organism-based. Particulars: dose 250.0 µg/kg, time 0.5-48 hrs.
The subject of assay [12] is Rattus norvegicus. Nature of the assay: Analgesic activity in Chronic constriction injury rat model assessed as increase in paw withdrawal latency at 250 microg/kg,IM administration and measured for 0.5 to 48 hrs. The assay is classed as functional, organism-based. The following applies: dose 250.0 µg/kg, time 0.5-48 hrs.
In assay [13] the test system is Rattus norvegicus. In words: Analgesic activity in Chronic constriction injury rat model assessed as decrease in hyperalgesia at 250 microg/kg,IM administrated every 2 hrs for 14 days. It is filed as functional, organism-based. The following applies: dose 250.0 µg/kg, time 14.0 day.
In assay [14] the test system is Rattus norvegicus. Nature of the assay: Analgesic activity in Chronic constriction injury rat model assessed as decrease in hyperalgesia at 250 microg/kg,IM administrated every 2 hrs for 7 days. The assay is classed as functional, organism-based. The following applies: dose 250.0 µg/kg, time 7.0 day.
The target in assay [15] is Sodium channel protein type 10 subunit alpha (Homo sapiens) (UniProt Q9Y5Y9). Nature of the assay: Inhibition of Nav1.8 (unknown origin) at 1 uM.
Chain of Sodium channel protein type 10 subunit alpha (Homo sapiens) (Q9Y5Y9 whole entry, looked up): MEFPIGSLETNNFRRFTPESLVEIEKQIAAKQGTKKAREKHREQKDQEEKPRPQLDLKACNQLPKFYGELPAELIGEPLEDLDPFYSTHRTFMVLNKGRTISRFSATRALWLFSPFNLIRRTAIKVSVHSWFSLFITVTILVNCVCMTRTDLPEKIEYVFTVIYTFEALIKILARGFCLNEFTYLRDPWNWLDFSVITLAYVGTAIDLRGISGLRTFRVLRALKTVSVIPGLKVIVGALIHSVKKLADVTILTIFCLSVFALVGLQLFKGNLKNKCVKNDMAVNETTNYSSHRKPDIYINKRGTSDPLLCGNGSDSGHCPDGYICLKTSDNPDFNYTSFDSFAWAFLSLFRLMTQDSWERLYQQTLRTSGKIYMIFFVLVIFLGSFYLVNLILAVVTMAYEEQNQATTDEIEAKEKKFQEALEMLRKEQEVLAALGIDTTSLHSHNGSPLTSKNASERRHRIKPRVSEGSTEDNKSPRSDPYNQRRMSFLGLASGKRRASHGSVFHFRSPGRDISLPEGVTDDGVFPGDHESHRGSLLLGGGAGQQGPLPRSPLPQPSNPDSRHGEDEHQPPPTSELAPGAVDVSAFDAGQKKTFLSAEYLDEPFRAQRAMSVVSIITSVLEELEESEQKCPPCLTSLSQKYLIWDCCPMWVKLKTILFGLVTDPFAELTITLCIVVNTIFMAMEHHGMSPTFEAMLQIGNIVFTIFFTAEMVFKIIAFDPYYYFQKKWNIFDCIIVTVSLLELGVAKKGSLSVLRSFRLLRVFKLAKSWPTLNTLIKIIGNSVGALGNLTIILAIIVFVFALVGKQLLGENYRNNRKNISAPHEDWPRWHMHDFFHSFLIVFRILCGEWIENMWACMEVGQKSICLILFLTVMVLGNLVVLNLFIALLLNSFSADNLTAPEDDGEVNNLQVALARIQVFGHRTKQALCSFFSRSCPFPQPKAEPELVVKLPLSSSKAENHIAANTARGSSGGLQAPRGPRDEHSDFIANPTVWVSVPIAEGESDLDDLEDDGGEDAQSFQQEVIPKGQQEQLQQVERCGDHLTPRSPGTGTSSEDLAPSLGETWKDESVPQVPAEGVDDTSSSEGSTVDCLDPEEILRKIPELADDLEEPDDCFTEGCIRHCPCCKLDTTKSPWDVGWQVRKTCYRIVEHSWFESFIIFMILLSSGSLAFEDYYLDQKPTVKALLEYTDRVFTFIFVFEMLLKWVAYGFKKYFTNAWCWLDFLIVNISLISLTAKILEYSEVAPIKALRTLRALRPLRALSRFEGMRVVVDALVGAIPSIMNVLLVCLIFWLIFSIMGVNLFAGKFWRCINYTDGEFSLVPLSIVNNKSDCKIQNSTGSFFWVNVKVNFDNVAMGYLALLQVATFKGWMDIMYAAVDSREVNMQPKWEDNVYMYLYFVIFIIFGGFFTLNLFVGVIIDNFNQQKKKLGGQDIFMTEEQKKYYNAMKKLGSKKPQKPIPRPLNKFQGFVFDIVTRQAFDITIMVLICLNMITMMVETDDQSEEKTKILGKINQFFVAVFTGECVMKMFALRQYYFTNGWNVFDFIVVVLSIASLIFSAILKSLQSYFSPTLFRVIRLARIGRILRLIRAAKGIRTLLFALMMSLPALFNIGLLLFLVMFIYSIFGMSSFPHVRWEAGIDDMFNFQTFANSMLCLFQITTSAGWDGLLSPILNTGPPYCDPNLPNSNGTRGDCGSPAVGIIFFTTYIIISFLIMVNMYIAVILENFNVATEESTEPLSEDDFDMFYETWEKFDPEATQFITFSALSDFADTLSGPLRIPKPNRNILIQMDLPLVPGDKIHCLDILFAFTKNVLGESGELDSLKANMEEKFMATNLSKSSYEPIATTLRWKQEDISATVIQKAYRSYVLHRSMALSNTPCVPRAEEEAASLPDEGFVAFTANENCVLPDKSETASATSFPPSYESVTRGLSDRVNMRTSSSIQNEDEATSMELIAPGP
In assay [16] the target is T4, Potassium/sodium hyperpolarization-activated cyclic nucleotide-gated channel 2 (Homo sapiens) (UniProt Q9UL51).
T4 sequence (whole entry): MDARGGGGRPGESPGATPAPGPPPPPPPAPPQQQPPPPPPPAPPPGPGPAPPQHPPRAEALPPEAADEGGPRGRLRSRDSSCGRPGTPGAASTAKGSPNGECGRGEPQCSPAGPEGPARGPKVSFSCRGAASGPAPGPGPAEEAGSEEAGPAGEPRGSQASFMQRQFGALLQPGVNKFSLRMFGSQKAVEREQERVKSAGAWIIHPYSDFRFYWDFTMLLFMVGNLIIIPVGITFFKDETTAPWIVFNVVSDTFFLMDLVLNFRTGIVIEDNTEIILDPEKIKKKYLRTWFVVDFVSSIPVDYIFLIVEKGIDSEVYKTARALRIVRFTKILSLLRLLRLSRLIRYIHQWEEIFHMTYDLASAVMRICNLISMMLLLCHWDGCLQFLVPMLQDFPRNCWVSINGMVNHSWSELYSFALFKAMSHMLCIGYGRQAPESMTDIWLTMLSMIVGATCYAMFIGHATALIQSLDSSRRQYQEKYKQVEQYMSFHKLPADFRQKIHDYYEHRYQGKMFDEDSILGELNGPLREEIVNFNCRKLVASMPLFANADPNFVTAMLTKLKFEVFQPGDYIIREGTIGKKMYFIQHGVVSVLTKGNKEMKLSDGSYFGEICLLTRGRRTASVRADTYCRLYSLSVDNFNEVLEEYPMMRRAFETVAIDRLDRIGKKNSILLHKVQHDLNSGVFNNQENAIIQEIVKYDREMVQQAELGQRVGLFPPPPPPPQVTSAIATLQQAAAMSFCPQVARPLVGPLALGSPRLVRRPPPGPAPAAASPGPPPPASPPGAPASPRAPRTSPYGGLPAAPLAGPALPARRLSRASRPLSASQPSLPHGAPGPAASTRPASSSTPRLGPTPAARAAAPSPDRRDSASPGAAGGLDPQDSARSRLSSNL
Nature of the assay: Inhibition of HCN2 (unknown origin) at 1 uM.

The target in assay [17] is T5, Acid-sensing ion channel 3 (Homo sapiens) (UniProt Q9UHC3).
T5 sequence (whole entry): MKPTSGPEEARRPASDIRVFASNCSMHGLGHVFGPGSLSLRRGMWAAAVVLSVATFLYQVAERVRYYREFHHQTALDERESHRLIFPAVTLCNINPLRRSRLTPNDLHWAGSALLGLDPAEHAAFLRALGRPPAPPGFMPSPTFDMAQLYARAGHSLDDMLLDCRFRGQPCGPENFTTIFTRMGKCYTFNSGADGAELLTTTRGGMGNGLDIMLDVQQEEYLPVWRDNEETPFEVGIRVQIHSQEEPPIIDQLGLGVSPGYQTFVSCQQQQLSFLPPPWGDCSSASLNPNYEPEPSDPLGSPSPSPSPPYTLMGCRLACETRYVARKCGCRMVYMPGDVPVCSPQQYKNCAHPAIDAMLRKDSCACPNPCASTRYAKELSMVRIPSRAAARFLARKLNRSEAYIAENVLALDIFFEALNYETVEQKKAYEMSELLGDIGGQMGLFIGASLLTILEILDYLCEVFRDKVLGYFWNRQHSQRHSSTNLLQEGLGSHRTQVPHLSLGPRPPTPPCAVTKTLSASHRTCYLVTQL
In words: Inhibition of ASIC3 (unknown origin) at 1 uM.

`CC[C@H](C)[C@H](NC(=O)[C@H](CCCNC(=N)N)NC(=O)[C@H](CCCNC(=N)N)NC(=O)[C@H](Cc1ccc(O)cc1)NC(=O)[C@H](CCCNC(=N)N)NC(=O)[C@H](CCCNC(=N)N)NC(=O)[C@H](CCCNC(=N)N)NC(=O)[C@H](CCCNC(=N)N)NC(=O)[C@H](CC(=O)O)NC(=O)[C@H](Cc1ccc(O)cc1)NC(=O)[C@@H]1CCCN1C(=O)[C@H](CO)NC(=O)[C@H](CCCNC(=N)N)NC(=O)[C@H](Cc1ccc(O)cc1)NC(=O)[C@H](CCCNC(=N)N)NC(=O)CN)C(=O)N[C@H](C(=O)N[C@@H](CC(=O)O)C(N)=O)[C@@H](C)O`: the half-inhibitory concentration (IC50) in [1] stood at 25.7 nM; in [2] it was 5 nM; in assay [3], 3.6 nM; in assay [4], 25.2 nM; in assay [8] it was 43.8 nM. Further, the inhibition result in [5], in assay [15], in assay [16] and in assay [17] was “inactive” each time. Moreover, the inhibition in assay [6] worked out at 25%; in assay [7], 80%. The inhibition result in assay [9] and in assay [10] was “Active” in each case. The outcome in the assay with Rattus norvegicus [11], in the assay with Rattus norvegicus [12], in the assay on Rattus norvegicus [13] and with Rattus norvegicus [14] was Active.
